Reference: patent publication US8815854B2, “Substituted imidazopyridinyl compounds” (ArQule, Inc., priority 2011, dated 2014)

target: Full-length inactive AKT1 (Homo sapiens (Human), UniProt P31749); test: Inactive Akt Alpha Screen Assay (AKT1, crosstide substrate); details: full-length inactive AKT1 activated by PDK1 and MAPKAPK2, lipid vesicles, 50 μM ATP; biotinylated crosstide substrate; read-out: Akt1 biochemical assay IC50 AlphaScreen crosstide
Procedure: AKT1 activity was assayed using the GSK3-derived biotinylated peptide substrate, crosstide (biotin-GRPRTSSFAEG), and AlphaScreen™ (Amplified Luminescent Proximity Homogeneous Assay) technology. AKT1 activation was achieved by the addition of the activating kinases PDK1 and MAPKAPK2, lipid vesicles, and ATP. The extent of peptide phosphorylation was determined using a phospho-AKT substrate antibody and acceptor beads conjugated to Protein A and donor beads conjugated to streptavidin that bind to the biotin on the peptide. Excitation of the donor beads converted ambient oxygen to excited singlet oxygen which, when in close proximity to acceptor beads, reacted with acceptor beads resulting in signal amplification.
Test inhibitors and controls ((S)-1-(5-(3-methyl-1H-indazol-5-yl)pyridin-3-yl)oxy)-3-phenylpropan-2-amine, 1-(1-(4-(7-phenyl-1H-imidazo[4,5-g]quinoxalin-6-yl)benzyl)piperidin-4-yl)-1H-benzo[d]imidazol-2(3H)-one, and 8-(4-(1-aminocyclobutyl)phenyl)-9-phenyl-[1,2,4]triazolo[3,4-f][1,6]naphthyridin-3(2H)-one) were prepared in 10% DMSO at 10-fold the desired final concentration, and added to each well of a reaction plate (Corning 96-well half-area solid white nonbinding surface plate) in a volume of 2.5 μL. […] After a 20 minute pre-incubation at room temperature, the kinase reaction was initiated by the addition of 5 μL of an activation mixture diluted in assay buffer containing biotinylated crosstide, PDK1, MAPKAPK2, DOPS/DOPC, PtdIns(3,4,5)P3, and ATP for final concentrations of 60 nM biotinylated crosstide, 0.1 nM PDK1, 0.7 nM MK2, 5.5 μM DOPS, 5.5 μM DOPC, 0.5 μM PtdIns(3,4,5)P3, and 50 μM ATP. The plates were incubated for 30 minutes at room temperature, and then stopped in the dark by the addition of 10 μL stop/detection mixture prepared in assay buffer containing EDTA, AlphaScreen™ Streptavidin Donor and Protein A Acceptor beads, and phospho-AKT substrate antibody for final concentrations of 10 mM EDTA, 500 ng/well of both AlphaScreen™ Streptavidin Donor beads and Protein A Acceptor beads, and phospho-AKT substrate antibody at a final dilution of 1:350. Assay plates were incubated for 90 minutes at room temperature in the dark, and the plates were read on a Perkin Elmer Envision Multilabel plate reader (excitation wavelength: […], emission wavelength: 570 nm).
Envision Instrument Settings: • Instrument: Perkin Elmer Envision • Plate: 96 well • Program Name: • Excitation: Ex Top • Minor: General Dual—Slot 2 • Excitation Filter: CFP430 Ex. Slot 2 • Emission Filter Emission 579—Em slot 2 • 2nd Emission Filter: None • Measurement Height (mm): 3.8 • Excitation light (%): 1 • Detector gain: 1 • 2nd detector gain: 0 • # Flashes: 10 • # Flashed/AD: 1 • Reference Signal: 383722 • AD gain: 4 • Reference Excitation (%): 100

Sequence of Full-length inactive AKT1 (P31749 whole entry): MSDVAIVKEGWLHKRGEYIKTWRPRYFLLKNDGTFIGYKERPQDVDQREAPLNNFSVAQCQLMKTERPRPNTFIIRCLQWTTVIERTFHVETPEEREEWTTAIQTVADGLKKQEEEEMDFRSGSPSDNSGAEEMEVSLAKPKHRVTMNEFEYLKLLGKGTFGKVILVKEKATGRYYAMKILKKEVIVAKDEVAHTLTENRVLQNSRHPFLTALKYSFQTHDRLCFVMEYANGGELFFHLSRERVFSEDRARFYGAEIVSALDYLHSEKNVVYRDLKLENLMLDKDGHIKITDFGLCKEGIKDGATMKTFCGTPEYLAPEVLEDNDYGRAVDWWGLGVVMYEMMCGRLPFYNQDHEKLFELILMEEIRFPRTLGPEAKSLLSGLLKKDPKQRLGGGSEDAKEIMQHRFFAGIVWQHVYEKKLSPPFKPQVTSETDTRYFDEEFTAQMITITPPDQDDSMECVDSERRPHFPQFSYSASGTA

Going from `NC1(c2ccc(-n3c(-c4ccccc4)nc4ccc(-c5ccccc5)nc43)cc2)CCC1` [Cmpd 5, 1-[4-(2,5-diphenyl-3H-imidazo[4,5-b]pyridin-3-yl)phenyl] cyclobutanamine] to `NC1(c2ccc(-n3c(-c4ccccc4)nc4ccc(Nc5ccccc5)nc43)cc2)CCC1` [Cmpd 47, 3-[4-(1-aminocyclobutyl)phenyl]-N,2-diphenyl-3H-imidazo[4,5-b]pyridin-5-amine], the IC50 falls from 12.6 nM to 4.13 nM (3.1-fold).

First: NC1(c2ccc(-n3c(-c4cccnc4F)nc4ccc(-c5ccccc5)nc43)cc2)CCC1 [Cmpd 7, 1-{4-[2-(2-fluoropyridin-3-yl)-5-phenyl-3H-imidazo[4,5-b]pyridin-3-yl]phenyl}cyclobutanamine]
Second: NC(=O)c1cccc(-c2ccc3nc(-c4ccccc4)n(-c4ccc(C5(N)CCC5)cc4)c3n2)c1 [Cmpd 35, 3-{3-[4-(1-aminocyclobutyl)phenyl]-2-phenyl-3H-imidazo[4,5-b]pyridin-5-yl}benzamide]
The IC50 of the first is 1.8-fold higher: 11.5 nM for the first, 6.27 nM for the second.

Going from `NC1(c2ccc(-n3c(-c4ccccc4)nc4ccc(-c5cccc(N6CCOCC6)c5)nc43)cc2)CCC1` [Cmpd 9, 1-{4-[5-(3-morpholin-4-ylphenyl)-2-phenyl-3H-imidazo[4,5-b]pyridin-3-yl]phenyl}cyclobutanamine] to `NC1(c2ccc(-n3c(-c4ccccc4F)nc4ccc(-c5cccc(N6CCOCC6)c5)nc43)cc2)CCC1` [Cmpd 11, 1-{4-[2-(2-fluorophenyl)-5-(3-morpholin-4-ylphenyl)-3H-imidazo[4,5-b]pyridin-3-yl]phenyl}cyclobutanamine], the IC50 falls from 3.47 nM to 1.99 nM (1.7-fold).

`NC1(c2ccc(-n3c(-c4cccs4)nc4ccc(-c5cccc(N6CCOCC6)c5)nc43)cc2)CCC1` [Cmpd 12, 1-{4-[5-(3-morpholin-4-ylphenyl)-2-(2-thienyl)-3H-imidazo[4,5-b]pyridin-3-yl]phenyl} cyclobutanamine] and `NC1(c2ccc(-n3c(-c4ccsc4)nc4ccc(-c5cccc(N6CCOCC6)c5)nc43)cc2)CCC1` [Cmpd 13, 1-{4-[5-(3-morpholin-4-ylphenyl)-2-(3-thienyl)-3H-imidazo[4,5-b]pyridin-3-yl]phenyl} cyclobutanamine] are within 1.5-fold of each other in IC50: 7.17 nM for the first, 5.78 nM for the second.

Compared with `NC1(c2ccc(-n3c(-c4ccccn4)nc4ccc(-c5cccc(N6CCOCC6)c5)nc43)cc2)CCC1` [Cmpd 14, 1-{4-[5-(3-morpholin-4-ylphenyl)-2-pyridin-2-yl-3H-imidazo[4,5-b]pyridin-3-yl]phenyl} cyclobutanamine], `NC1(c2ccc(-n3c(-c4cnccn4)nc4ccc(-c5cccc(N6CCOCC6)c5)nc43)cc2)CCC1` [Cmpd 42, 1-{4-[5-(3-morpholin-4-ylphenyl)-2-pyrazin-2-yl-3H-imidazo[4,5-b]pyridin-3-yl]phenyl} cyclobutanamine] is 2.5-fold higher in IC50: 1.69 nM for the first, 4.27 nM for the second.

Compared with `NC1(c2ccc(-n3c(-c4cccnc4)nc4ccc(-c5cccc(N6CCOCC6)c5)nc43)cc2)CCC1` [Cmpd 15, 1-{4-[5-(3-morpholin-4-ylphenyl)-2-pyridin-3-yl-3H-imidazo[4,5-b]pyridin-3-yl]phenyl} cyclobutanamine], `NC1(c2ccc(-n3c(-c4ccncc4)nc4ccc(-c5cccc(N6CCOCC6)c5)nc43)cc2)CCC1` [Cmpd 16, 1-{4-[5-(3-morpholin-4-ylphenyl)-2-pyridin-4-yl-3H-imidazo[4,5-b]pyridin-3-yl]phenyl} cyclobutanamine] is 1.8-fold higher in IC50: 4.3 nM for the first, 7.75 nM for the second. The first is the more potent here.

Compared with `NC1(c2ccc(-n3c(-c4nccs4)nc4ccc(-c5cccc(N6CCOCC6)c5)nc43)cc2)CCC1` [Cmpd 17, 1-{4-[5-(3-morpholin-4-ylphenyl)-2-(1,3-thiazol-2-yl)-3H-imidazo[4,5-b]pyridin-3-yl]phenyl} cyclobutanamine], `NC1(c2ccc(-n3c(-c4cc[nH]n4)nc4ccc(-c5cccc(N6CCOCC6)c5)nc43)cc2)CCC1` [Cmpd 18, 1-{4-[5-(3-morpholin-4-ylphenyl)-2-(1H-pyrazol-3-yl)-3H-imidazo[4,5-b]pyridin-3-yl]phenyl} cyclobutanamine] is 1.5-fold higher in IC50: 4.74 nM for the first, 7.27 nM for the second. The first is the more potent here.

First: NC1(c2ccc(-n3c(-c4cc[nH]c4)nc4ccc(-c5cccc(N6CCOCC6)c5)nc43)cc2)CCC1 [Cmpd 19, 1-{4-[5-(3-morpholin-4-ylphenyl)-2-(1H-pyrrol-3-yl)-3H-imidazo[4,5-b]pyridin-3-yl]phenyl} cyclobutanamine]
Second: NC1(c2ccc(-n3c(-c4ccc(F)cc4)nc4ccc(-c5cccc(N6CCOCC6)c5)nc43)cc2)CCC1 [Cmpd 31, 1-{4-[2-(4-fluorophenyl)-5-(3-morpholin-4-ylphenyl)-3H-imidazo[4,5-b]pyridin-3-yl]phenyl}cyclobutanamine]
The IC50 of the first is 6.3-fold lower: 5.67 nM for the first, 35.5 nM for the second. The first is the more potent here.

Compared with `COC(=O)c1ccccc1-c1nc2ccc(-c3cccc(N4CCOCC4)c3)nc2n1-c1ccc(C2(N)CCC2)cc1` [Cmpd 20, methyl 2-{3-[4-(1-aminocyclobutyl)phenyl]-5-(3-morpholin-4-ylphenyl)-3H-imidazo[4,5-b]pyridin-2-yl} benzoate], `NC1(c2ccc(-n3c(-c4ccc(O)cc4)nc4ccc(-c5cccc(N6CCOCC6)c5)nc43)cc2)CCC1` [Cmpd 26, 4-{3-[4-(1-aminocyclobutyl)phenyl]-5-(3-morpholin-4-ylphenyl)-3H-imidazo[4,5-b]pyridin-2-yl}phenol] is 1200-fold lower in IC50: 5260 nM for the first, 4.42 nM for the second.

`NC1(c2ccc(-n3c(C4CCCCC4)nc4ccc(-c5cccc(N6CCOCC6)c5)nc43)cc2)CCC1` [Cmpd 24, 1-{4-[2-cyclohexyl-5-(3-morpholin-4-ylphenyl)-3H-imidazo[4,5-b]pyridin-3-yl]phenyl} cyclobutanamine] and `NC1(c2ccc(-n3c(C4CC4)nc4ccc(-c5cccc(N6CCOCC6)c5)nc43)cc2)CCC1` [Cmpd 44, 1-{4-[2-cyclopropyl-5-(3-morpholin-4-ylphenyl)-3H-imidazo[4,5-b]pyridin-3-yl]phenyl}cyclobutanamine] are within 1.5-fold of each other in IC50: 1160 nM for the first, 871 nM for the second.

`NC1(c2ccc(-n3c(-c4cccc(F)c4)nc4ccc(-c5cccc(N6CCOCC6)c5)nc43)cc2)CCC1` [Cmpd 30, 1-{4-[2-(3-fluorophenyl)-5-(3-morpholin-4-ylphenyl)-3H-imidazo[4,5-b]pyridin-3-yl]phenyl}cyclobutanamine] and `NC1(c2ccc(-n3c(-c4ccc(Cl)cc4)nc4ccc(-c5cccc(N6CCOCC6)c5)nc43)cc2)CCC1` [Cmpd 34, 1-{4-[2-(4-chlorophenyl)-5-(3-morpholin-4-ylphenyl)-3H-imidazo[4,5-b]pyridin-3-yl]phenyl}cyclobutanamine] are within 1.5-fold of each other in IC50: 4.78 nM for the first, 5.9 nM for the second.

`CN(C)C(=O)c1cccc(-c2ccc3nc(-c4ccccc4)n(-c4ccc(C5(N)CCC5)cc4)c3n2)c1` [Cmpd 36, 3-{3-[4-(1-aminocyclobutyl)phenyl]-2-phenyl-3H-imidazo[4,5-b]pyridin-5-yl}-N,N-dimethylbenzamide] and `CNC(=O)c1cccc(-c2ccc3nc(-c4ccccc4)n(-c4ccc(C5(N)CCC5)cc4)c3n2)c1` [Cmpd 37] are within 1.5-fold of each other in IC50: 5.71 nM for the first, 4.96 nM for the second.
